The results in this text go back to PubChem BioAssay (NCI).

The GI50 is the concentration giving 50% growth inhibition. The TGI is the concentration giving total growth inhibition.

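Test compounds were applied to cells in 96-well plates for 48 hours at 5 doses. Here, GI50 denotes the concentration required for 50% inhibition of growth. The concentration for full growth arrest is given as TGI.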

Test systems include HOP-92 NSCLC; MALME-3M melanoma; NCI-H460 lung; RPMI-8226 leukemia; RXF 393 renal; SK-MEL-28 melanoma; SNB-19 CNS; SNB-75 CNS; T-47D breast; UO-31 renal.
What all share (experiment): DTP human tumour cell line panel, 48 h

In the case of `Nc1ncnc2c1c(-c1cccc(OCc3ccccc3)c1)cn2C1CC(CN2CCCC2)C1` (stereo not given), the GI50 in the test on HOP-92 NSCLC is 0.0749 µM; in the test on MALME-3M melanoma, 2.06 µM; in the test with NCI-H460 lung, 1.66 µM; with RPMI-8226 leukemia, 1.94 µM; in the test on RXF 393 renal it was 1.21 µM; in the test with SK-MEL-28 melanoma it was 1.4 µM. Further, the GI50 was 4.19 µM in the test on SNB-19 CNS, 1.24 µM with SNB-75 CNS, 2.04 µM in the test with T-47D breast and 1.28 µM in the test with UO-31 renal. Also, the TGI in the test with HOP-92 NSCLC turned out to be 0.867 µM; in the test with MALME-3M melanoma it was 5.7 µM; in the test on NCI-H460 lung, 7.65 µM; in the test on RPMI-8226 leukemia it was 5.4 µM; in the test with RXF 393 renal, 2.68 µM; in the test with SK-MEL-28 melanoma, 2.8 µM. Further, the TGI with SNB-19 CNS came out at 16.9 µM; in the test with SNB-75 CNS, 3.19 µM; in the test on T-47D breast, 6.59 µM; in the test with UO-31 renal, 3.61 µM.

For the molecule `COc1ccc2nc3cccc([N+](=O)[O-])c3c(NCCN(CCO)CCO)c2c1`, the GI50 with HOP-92 NSCLC is 0.0278 µM; in the test with MALME-3M melanoma it was 0.0158 µM; in the test on NCI-H460 lung it was 0.0104 µM; in the test on RPMI-8226 leukemia it was 0.0155 µM; in the test on RXF 393 renal, 0.0155 µM; in the test with SK-MEL-28 melanoma it was 0.0444 µM. Moreover, the GI50 was 0.129 µM with SNB-19 CNS, 0.0747 µM with SNB-75 CNS, 0.0913 µM with T-47D breast and 0.0539 µM with UO-31 renal. For the same molecule, the TGI with HOP-92 NSCLC is 0.0829 µM; with MALME-3M melanoma, 0.0408 µM; in the test on NCI-H460 lung, 0.0985 µM; in the test with RPMI-8226 leukemia it was 0.102 µM; in the test with RXF 393 renal it was 0.032 µM; in the test on SK-MEL-28 melanoma, 0.414 µM. Besides, the TGI in the test with SNB-19 CNS came to 1.45 µM; with SNB-75 CNS, 0.225 µM; in the test with T-47D breast, 1.01 µM; in the test on UO-31 renal, 0.184 µM.

As to `O=C(CSc1nc2ccc([N+](=O)[O-])cc2[nH]1)Nc1cccc(Cl)c1`, the 50% growth inhibitory concentration (GI50) in the test with HOP-92 NSCLC was 0.421 µM; in the test with MALME-3M melanoma, 1.87 µM; in the test with NCI-H460 lung it was 3.22 µM; in the test on RPMI-8226 leukemia, 1.66 µM; in the test on RXF 393 renal, 2.39 µM; in the test on SK-MEL-28 melanoma, 2.68 µM. The GI50 was 2.92 µM in the test with SNB-19 CNS, 1.85 µM with SNB-75 CNS, 1.55 µM in the test on T-47D breast and 1.97 µM in the test with UO-31 renal. Moreover, the concentration for total growth inhibition (TGI) in the test on HOP-92 NSCLC was 3.3 µM; in the test with MALME-3M melanoma, 8.17 µM; with NCI-H460 lung, 13.1 µM; with RPMI-8226 leukemia, more than 27.8 µM; in the test on RXF 393 renal it was 8.49 µM; in the test with SK-MEL-28 melanoma, 13.1 µM. Further, the TGI was determined as 15.9 µM with SNB-19 CNS, 7.81 µM in the test on SNB-75 CNS, 18.9 µM in the test with T-47D breast and 9.99 µM in the test on UO-31 renal.

Turning to `CCCN(CCC)c1ccc(C=O)cc1`, the GI50 with HOP-92 NSCLC was 13 µM; in the test on MALME-3M melanoma, more than 81.2 µM; with NCI-H460 lung it was more than 100 µM; in the test with RPMI-8226 leukemia, 54.5 µM; with RXF 393 renal, 72.2 µM; in the test with SK-MEL-28 melanoma, more than 100 µM. For the same molecule, the GI50 in the test with SNB-19 CNS was 62 µM; with SNB-75 CNS, 18.4 µM; in the test with T-47D breast, 21.1 µM; in the test with UO-31 renal, 36.2 µM. For the same molecule, the TGI with HOP-92 NSCLC is 66.2 µM; in the test on MALME-3M melanoma, more than 100 µM; in the test on NCI-H460 lung it was more than 100 µM; with RPMI-8226 leukemia, more than 100 µM; in the test on RXF 393 renal it was more than 100 µM; in the test with SK-MEL-28 melanoma, more than 100 µM. Moreover, the TGI in the test on SNB-19 CNS, in the test with SNB-75 CNS, in the test with T-47D breast and in the test with UO-31 renal was more than 100 µM throughout.

On to `CN(C)c1ccc(/C=C(\C#N)c2cc3ccccc3n2C)cc1`, for which the GI50 is 0.556 µM in the test with HOP-92 NSCLC; 0.133 µM in the test on MALME-3M melanoma; 0.353 µM in the test with NCI-H460 lung; 0.351 µM in the test with RPMI-8226 leukemia; 0.133 µM with RXF 393 renal; 1.07 µM in the test on SK-MEL-28 melanoma. Besides, the GI50 was 0.357 µM in the test on SNB-19 CNS, 0.0562 µM in the test with SNB-75 CNS, 0.204 µM in the test with T-47D breast and 0.82 µM with UO-31 renal. Also, the TGI was more than 23 µM with HOP-92 NSCLC; more than 100 µM in the test with MALME-3M melanoma; 4.4 µM in the test on NCI-H460 lung; more than 100 µM in the test with RPMI-8226 leukemia; 0.549 µM in the test on RXF 393 renal; more than 100 µM in the test on SK-MEL-28 melanoma. In addition, the TGI was more than 100 µM in the test on SNB-19 CNS, 1.75 µM in the test on SNB-75 CNS, more than 100 µM in the test with T-47D breast and more than 100 µM in the test on UO-31 renal.

Turning to `Nc1ccccc1/C=N\Nc1ccccc1`, the GI50 is 6.27 µM with HOP-92 NSCLC; more than 100 µM in the test with MALME-3M melanoma; 2.35 µM in the test on NCI-H460 lung; more than 100 µM in the test on RPMI-8226 leukemia; more than 100 µM in the test with RXF 393 renal; more than 100 µM with SK-MEL-28 melanoma. Moreover, the GI50 in the test on SNB-19 CNS was more than 100 µM; in the test with SNB-75 CNS, more than 100 µM; in the test on T-47D breast it was 5.04 µM; with UO-31 renal, 2.43 µM. Further, the TGI in the test with HOP-92 NSCLC, with MALME-3M melanoma, in the test with NCI-H460 lung, in the test with RPMI-8226 leukemia, with RXF 393 renal and in the test on SK-MEL-28 melanoma was more than 100 µM each time. Moreover, the total growth inhibition concentration (TGI) in the test on SNB-19 CNS, in the test with SNB-75 CNS, in the test on T-47D breast and in the test with UO-31 renal was more than 100 µM each time.

`CC(C)c1ccc2c(N=Nc3ccc(S(N)(=O)=O)cc3)c(O)[nH]c2c1`: the GI50 is more than 15.9 µM in the test with HOP-92 NSCLC; 12.4 µM in the test with MALME-3M melanoma; 5.72 µM in the test on NCI-H460 lung; more than 25 µM with RPMI-8226 leukemia; 4.41 µM with RXF 393 renal; more than 25 µM in the test on SK-MEL-28 melanoma. Moreover, the GI50 in the test on SNB-19 CNS is more than 14.5 µM; in the test on SNB-75 CNS, 4.72 µM; in the test with T-47D breast, more than 15.3 µM; in the test with UO-31 renal, more than 11.9 µM. The TGI is more than 25 µM in the test on HOP-92 NSCLC; more than 25 µM in the test with MALME-3M melanoma; more than 16.4 µM in the test on NCI-H460 lung; more than 25 µM with RPMI-8226 leukemia; more than 16 µM in the test with RXF 393 renal; more than 25 µM in the test on SK-MEL-28 melanoma. Further, the TGI with SNB-19 CNS was more than 25 µM; in the test with SNB-75 CNS, 10.3 µM; in the test on T-47D breast it was more than 25 µM; in the test on UO-31 renal, more than 20.7 µM.
